# Measurements: PMC9781958, “Next-Generation Heterocyclic Electrophiles as Small-Molecule Covalent MurA Inhibitors” (Pharmaceuticals, 2022)
# Read-outs that look alike come from different tables or passages of the source.
# Assays:
# [1] = molecular target: T1, E. coli MurA (UDP-N-acetylglucosamine 1-carboxyvinyltransferase, EC:2.5.1.7) (Escherichia coli, UniProt P0A749); experiment: MurA inhibitory assay (colorimetric malachite green method); assay type: biochemical; parameters: inferred from IMAC purification with imidazole elution; made in house; host or cells: Escherichia coli NiCo21(DE3); conditions: for IC50 [μM] MurA: Figure 1, methylated library, 30 min preincubation; for remaining activity at 100 µM: 0.5 h, read-out: RA% @ 100 μM MurA 30 min preincubation
# T1 sequence (P0A749 whole entry): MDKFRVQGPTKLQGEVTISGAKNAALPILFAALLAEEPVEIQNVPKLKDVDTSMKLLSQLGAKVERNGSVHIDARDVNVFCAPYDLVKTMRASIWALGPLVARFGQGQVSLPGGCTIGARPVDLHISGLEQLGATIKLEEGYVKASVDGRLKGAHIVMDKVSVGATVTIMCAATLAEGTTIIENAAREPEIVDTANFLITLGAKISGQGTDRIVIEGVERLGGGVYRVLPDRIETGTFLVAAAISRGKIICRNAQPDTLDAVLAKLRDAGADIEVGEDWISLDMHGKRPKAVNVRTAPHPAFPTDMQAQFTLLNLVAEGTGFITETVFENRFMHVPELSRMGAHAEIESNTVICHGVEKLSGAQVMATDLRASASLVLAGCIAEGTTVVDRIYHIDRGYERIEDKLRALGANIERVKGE
# Experimental: Expression and purification of E. coli MurA (UDP-N-acetylglucosamine 1-carboxyvinyltransferase, EC:2.5.1.7) was performed according to the known procedure. Briefly, the MurA plasmid was used to transform chemically competent Escherichia coli NiCo21(DE3) (New England Biolabs, Ipswich, MA, USA). The transformant was cultured at 37 °C and 250 rpm in LB broth. Expression was induced by addition of 1 mM IPTG and cultured for an additional 3 h. Cells were harvested by centrifugation (3000× g for 10 min at 4 °C), and cell pellets were stored at −80 °C until purification. Cell pellets were resuspended in buffer 50 mM Tris (pH 8), 150 mM NaCl, and 10 % glycerol and lysed on ice by sonication. Cell debris was removed by centrifugation for 30 min (16,000× g, 4 °C, repeated twice). The lysate was loaded onto a HiTrap 1 mL IMAC HP column (Cytiva, Marlborough, MA, USA). The column was washed with buffer containing 50 mM imidazole with 20 column volumes, and the protein was eluted with buffer containing 250 mM imidazole. The eluted MurA was exchanged into proprietary buffer (50 mM Tris (pH 8), 150 mM NaCl, 10 % glycerol).
# The inhibition of the MurA enzyme was monitored using the colorimetric malachite green method in which orthophosphate generated during the reaction is detected. The assay was performed in 96-well microplates with a final volume of 50 μL. The MurA enzyme was preincubated with the substrate UNAG (UDP-N-acetylglucosamine, Sigma, St. Louis, MO, USA) and compound for 30 min at 37 °C. […] After incubation for 15 min at 37 °C, the enzyme reaction was ended by adding Biomol® reagent (100 µL), and the absorbance was measured at 650 nm after 5 min using a microplate reader (Synergy H4, BioTek Instruments, Inc., Winooski, VT, USA). All of the experiments were run in duplicate. […] IC50 values were determined by measuring residual activities at 7 different compound concentrations and calculated using GraphPad Prism (GraphPad Software, San Diego, CA, USA).
# [2] = molecular target: MurA (Escherichia coli, UniProt P0A749); experiment: MurA covalent labelling, intact MS; assay type: binding, E. coli; conditions: 5 mM fragment, 37 °C, 60 min (Figure S1)
# Chain of MurA (P0A749 whole entry, the tested form may be a part): as the sequence (P0A749 whole entry) above
# Experimental: The covalent labelling procedure was conducted as described earlier with slight modifications. First, 42 μM stock solution of MurA in 20 mM HEPES at pH 7.2–7.4 with 1 mM DTT (dithiothreitol, Sigma) was filtered through a G25 desalting column, and the medium was changed to 50 mM Tris with 0.005% Triton X-100 at pH 8.0. For the activation of the enzyme, 1 mg UNAG was added as a solid to reach 40 mM concentration, and the mixture was incubated at 37 °C for 30 min. Fragments were added from a 100 mM DMSO stock diluted in the labelling solution to 5 mM. The incubation was continued at 37 °C for an additional 60 min. After the labelling, the mixture was purified on a G25 desalting column.
# The molecular weights of the conjugates were identified using a Triple-TOF 5600+ hybrid Q-TOF LC/MS/MS system (Sciex, Singapore, Woodlands) equipped with a Duo Spray Ion Source coupled with a Shimadzu Prominence LC20 UFLC (Shimadzu, Kyoto, Japan) system consisting of a binary pump, an autosampler, and a thermostated column compartment. Data acquisition and processing were performed using Analyst TF software version 1.7.1 (AB Sciex Instruments, Redwood City, CA, USA). Chromatographic separation was achieved on a Thermo BetaBasic C8 (50 mm × 2.1 mm, 3 μm, 150 Å) HPLC column. […]
# [3] = NMR-based single-point GSH reactivity assay; assay type: physicochemical; conditions: pH 7.4, 1H NMR
# Experimental: For the NMR assay, a 500 mM D2O stock solution was first prepared for each fragment along with an 800 mM D2O stock solution of GSH. Thereafter, a 5 mM electrophilic standard solution was prepared by adding 20 μL of stock solution to a 2 mL 100 mM potassium hydrogen phosphate/sodium hydrogen phosphate buffer solution (pH 7.4). A total of 0.5 mL of this electrophilic standard solution was placed in an NMR tube, and then the ^1H NMR was recorded. The peak values obtained during the measurement were considered the zero-point measurement or reference peaks of the reactivity study. For the reactivity measurement, 20 μL of the fragment stock solution was added to 1980 μL phosphate buffer solution (pH 7.4) along with 20 μL of GSH stock solution (final concentration = […] GSH and 5 mM fragment). The contents were vortexed until homogenization and were transferred to an NMR tube. The resulting mixture was analyzed by ^1H NMR measurements after 15 and 30 min, and 4 and 24 h. The AUC (area under the curve) values were determined via integration of the corresponding peaks in the NMR spectra.
# [4] = molecular target: T1, E. coli MurA (UDP-N-acetylglucosamine 1-carboxyvinyltransferase, EC:2.5.1.7); conditions: read-out: MurA IC50 (µM) Non-Methylated; first-generation non-methylated heterocycles; cited from earlier work
# [5] = Table 1, methylated heterocycles, read-out: MurA IC50 (µM) Methylated
compound,measurement,setting,value
C[n+]1ccccc1Cl [A1+],IC50,[1],51.6 µM
C[n+]1ccccc1I [A3+],IC50,[1],15.5 µM
C#Cc1cccc[n+]1C [A6+],IC50,[1],50 µM
C[n+]1ccc(I)cc1 [C3+],IC50 [μM] MurA,[1],single-digit micromolar
same,IC50,[1]; [5],4.5 µM
same,covalent labelling of MurA by intact MS,[2],single and double labelling on MurA
C#Cc1cc[n+](C)cc1 [C6+],IC50,[1]; [5],64.7 µM
C[n+]1cccnc1Cl [D1+],remaining activity at 100 µM,[1],99.1%
C[n+]1cccnc1Br [D2+],remaining activity at 100 µM,[1],98.2%
C[n+]1cccnc1I [D3+],IC50 [μM] MurA,[1],single-digit micromolar
same,IC50,[1]; [5],2.99 µM
same,fold increase in MurA inhibitory potency of methylated versus non-methylated pair,[1]; from IC50 values of Table 1,100 fold
C#Cc1nccc[n+]1C [D6+],"Single point GSH reactivity (% conversion in 15 min, 16 equiv. GSH)",[3],100%
same,remaining activity at 100 µM,[1],6.7%
C#Cc1cnc[n+](C)c1 [F6+],remaining activity at 100 µM,[1],77.8%
Cn1cc[n+](C)c1I [H3+],"Single point GSH reactivity (% conversion in 15 min, 16 equiv. GSH)",[3],100%
same,remaining activity at 100 µM,[1],10.4%
same,IC50,[1]; [5],10.2 µM
C[n+]1ccoc1I [N3+],"Single point GSH reactivity (% conversion in 15 min, 16 equiv. GSH)",[3],100%
same,remaining activity at 100 µM,[1],1.2%
C[n+]1ccsc1Br [R2+],remaining activity at 100 µM,[1],42.8%
C[C@@H]1O[C@@H]1P(=O)(O)O [fosfomycin],IC50,[4],0.25 ± 0.01 µM
